Patent US7309584B2, “Mutations of the MDR1 P-glycoprotein that improves its ability to confer resistance to chemotherapeutic drugs” (The Board of Trustees of the University of Illinois, priority 2000, dated 2007)

Assays:
NIH 3T3 cells [1] = experiment: clonogenic assays for drug resistance of NIH 3T3 cells transduced with MDR1 constructs; assay type: cell-based; conditions: for doxorubicin resistance relative to the LMDR1-G185V construct: FIG. 5B, 6B; for taxol resistance relative to the LMDR1-G185V construct: FIG. 6E; for vinblastine resistance relative to the LMDR1-G185V construct: FIG. 6D; for etoposide resistance relative to the LMDR1-G185V construct / fold increase in etoposide resistance relative to the LMDR1-G185V construct: FIG. 5A; for etoposide resistance relative to the LMDR1-G185V construct: 6A; for colchicine resistance relative to the LMDR1-G185V construct: FIG. 5C, 6C; for colchicine resistance relative to cells transduced with wild-type MDR1: FIG. 4B; for doxorubicin resistance relative to cells transduced with wild-type MDR1: FIG. 4C; for etoposide resistance relative to cells transduced with wild-type MDR1: FIG. 4A; for taxol resistance relative to cells transduced with wild-type MDR1: FIG. 4E; for vinblastine resistance relative to cells transduced with wild-type MDR1: FIG. 4D; for fold increase in doxorubicin resistance relative to the LMDR1-G185V construct: transduced NIH 3T3 cells, Table II; for fold increase in etoposide resistance relative to the LMDR1-G185V construct: transduced NIH 3T3 cells sorted for similar P-glycoprotein levels
Source text: FIGS. 4A through 4E illustrate the results of clonogenic assays for resistance to etoposide (panel A), colchicine (panel B), doxorubicin (panel C), vinblastine (panel D), and taxol (panel E) for NIH 3T3 cells transduced with LXSN (closed squares), wild-type MDR1 (closed circles), MDR1-G185V (open circles), MDR1-I186N (closed triangles), or MDR1-G185V/I186N (open triangles);
FIGS. 5A through 5C illustrate the results of clonogenic assays for resistance to etoposide (panel A), doxorubicin (panel B), and colchicine (panel C) for NIH 3T3 cells transduced with LMDR1-G185V (open circles), LMDR1-G185V-EK2 (closed triangles), LMDR1-G185V-EK3 (open triangles), or LMDR1-G185V-EK5 (closed diamonds);
FIGS. 6A through 6E illustrate the results of clonogenic assays for resistance to etoposide (panel A), doxorubicin (panel B), colchicine (panel C), vinblastine (panel D), and taxol (panel E) for NIH 3T3 cells transduced with LMDR1-G185V (closed circles), LMDR1-G185V-L56F (open circles), LMDR1-G185V-I190F/M197F (closed triangles), LMDR1-G185V-G763W (open triangles), or LMDR1-G185V-G844Q (closed squares).
Retroviral vectors carrying LXSN (negative control carrying the neomycin/G418 resistance gene), wild-type MDR1, MDR1-G185V, MDR1-I186N, or MDR1-G185V/I186N were individually transduced into NIH 3T3 cells. Populations transduced with MDR1 containing vectors were stained with the P-glycoprotein-specific monoclonal antibody MRK16, and then sorted to obtain cell populations expressing a similar level of P-glycoprotein.
NIH 3T3 cells were transduced with the LMDR1-G185V, LMDR1-G185V-EK2, LMDR1-G185V-EK3, or LMDR1-G185V-EK5 constructs, and the transduced cells were then sorted by FACS to generate pure populations of P-glycoprotein positive cells having similar levels of P-glycoprotein. Following sorting, the cell populations were analyzed for their drug resistance.
To investigate the mutants 8-A4, 5-C3, 2-B2, and 2-B1, having mutations in one of the transmembrane domains, MDR1-G185V cDNA was modified by site-directed mutagenesis to create the following constructs: LMDR1-G185V-L56F (leucine to phenylalanine mutation at residue 56), LMDR1-G185V-I190F/M197F (isoleucine to phenylalanine mutation at amino acid residue 190 and methionine to phenylalanine mutation at residue 197), LMDR1-G185V-G763W (glycine to tryptophan mutation at residue 763), and LMDR1-G185V-G844Q (glycine to glutamine mutation at residue 844). NIH 3T3 cells were transduced with either the LMDR1-G185V construct or one of the transmembrane mutant constructs, and the transduced cells were then sorted by FACS to generate pure populations of P-glycoprotein positive cells having similar levels of P-glycoprotein. Following sorting, the cell populations were analyzed for their drug resistance.

NIH 3T3 cells [2] = experiment: etoposide resistance / survival in etoposide of NIH 3T3 cells transduced with rescued MDR1-G185V mutants; assay type: cell-based; conditions: mutant fragments recloned into LMDR1-G185V, similar MDR1 expression
Protocol: Mutant MDR1-G185V cDNA isolated from eleven clonal lines was tested for the ability to confer elevated resistance to etoposide as compared to unmutagenized MDR1-G185V. Fragments of MDR1 cDNA containing mutations were first excised from the MDR1 cDNA using restriction endonucleases that recognize appropriate sites flanking the mutation, and then the fragments were recloned into the parental LMDR1-G185V vector. Naïve NIH 3T3 cells were individually transduced with the eleven LMDR1-G185V mutants, wild-type LMDR1-G185V, or LXSN, and then analyzed by FACS for MDR1 expression. […] The cell populations were then assayed for etoposide resistance.
An array selection strategy was employed to isolate additional MDR1 mutants conferring hyper-resistance to etoposide from the cells transduced with Mut II and selected in 10 μg/mL etoposide, as described in Example 1 (this selection scheme is shown in FIG. 1C and in FIG. 2). The 131 clonal lines from Example 1 were divided into four pools. MDR1 cDNA was recovered by PCR from each of the four pools, recloned back into LXSN, and used to transform bacterial cells to generate four MDR1 mutant libraries. These libraries were plated; individual bacterial colonies were picked and tested by array analysis. […]

Row | Substance | doxorubicin resistance relative to the LMDR1-G185V construct (NIH 3T3 cells [1]) | taxol resistance relative to the LMDR1-G185V construct (NIH 3T3 cells [1]) | vinblastine resistance relative to the LMDR1-G185V construct (NIH 3T3 cells [1]) | colchicine resistance relative to the LMDR1-G185V construct (NIH 3T3 cells [1]) | colchicine resistance relative to cells transduced with wild-type MDR1 (NIH 3T3 cells [1]) | doxorubicin resistance relative to cells transduced with wild-type MDR1 (NIH 3T3 cells [1]) | etoposide resistance relative to cells transduced with wild-type MDR1 (NIH 3T3 cells [1]) | other results
1 | G763W: MDR1-G185V construct with glycine to tryptophan mutation at residue 763 | moderate increases in doxorubicin resistance | no effect on taxol resistance | only a moderate increase in vinblastine resistance |  |  |  |  | 
2 | I190F/M197F: MDR1-G185V construct with isoleucine to phenylalanine at residue 190 and methionine to phenylalanine at residue 197 | moderate increases in doxorubicin resistance | significant increase in taxol resistance | increased vinblastine resistance |  |  |  |  | etoposide resistance relative to the LMDR1-G185V construct (NIH 3T3 cells [1]): the greatest resistance
3 | L56F: MDR1-G185V construct with leucine to phenylalanine mutation at residue 56 | very strong resistance to doxorubicin | decreased taxol resistance | decreased vinblastine resistance | increased colchicine resistance |  |  |  | 
4 | MDR1-I186N: mutant human P-glycoprotein having an asparagine substitution at position 186 (SEQ ID NO: 4) |  |  |  |  | increase colchicine resistance | doxorubicin resistance was enhanced | increase etoposide resistance to a similar degree as the G185V substitution | taxol resistance relative to cells transduced with wild-type MDR1 (NIH 3T3 cells [1]): increase resistance to both of these drugs; vinblastine resistance relative to cells transduced with wild-type MDR1 (NIH 3T3 cells [1]): increase resistance to both of these drugs; etoposide resistance as compared to unmutagenized MDR1-G185V (NIH 3T3 cells [2]): increased resistance to etoposide
5 | LMDR1-G185V-EK5: MDR1-G185V construct with glutamic acid to lysine substitutions at positions 634, 636, 643, 647 and 652 |  |  |  | the greatest decrease in colchicine resistance |  |  |  | etoposide resistance relative to the LMDR1-G185V construct (NIH 3T3 cells [1]): the effect of the double and triple lysine mutants was not additive
6 | MDR1-G185V/I186N: mutant human P-glycoprotein having both G185V and I186N substitutions |  |  |  |  | indistinguishable from that obtained for cells transduced with the MDR1-G185V construct | an even higher level of doxorubicin resistance | higher level of etoposide resistance than cells transduced with either the MDR1-G185V or MDR1-I186N constructs | 
7 | LMDR1-G185V-EK2: MDR1-G185V construct with glutamic acid to lysine substitutions at positions 634 and 636 | increase doxorubicin resistance |  |  | decrease colchicine resistance |  |  |  | fold increase in doxorubicin resistance relative to the LMDR1-G185V construct (NIH 3T3 cells [1]): almost two-fold increase; fold increase in etoposide resistance relative to the LMDR1-G185V construct (NIH 3T3 cells [1]): 1.4 fold
8 | LMDR1-G185V-EK3: MDR1-G185V construct with glutamic acid to lysine substitutions at positions 643, 647, and 652 | increase doxorubicin resistance |  |  | decrease colchicine resistance |  |  |  | fold increase in doxorubicin resistance relative to the LMDR1-G185V construct (NIH 3T3 cells [1]): nearly a four-fold increase; fold increase in etoposide resistance relative to the LMDR1-G185V construct (NIH 3T3 cells [1]): 1.6 fold
9 | MDR1-G185V: human P-glycoprotein having a glycine to valine substitution at position 185 (SEQ ID NO: 3) [reference compound] |  |  |  |  | an even higher level of colchicine resistance | doxorubicin resistance was enhanced | increase etoposide resistance | taxol resistance relative to cells transduced with wild-type MDR1 (NIH 3T3 cells [1]): decrease resistance levels to both of these drugs; vinblastine resistance relative to cells transduced with wild-type MDR1 (NIH 3T3 cells [1]): decrease resistance levels to both of these drugs
